Measurements taken from patent US8049014B2, “Aminoquinoline derivatives, preparation method thereof and pharmaceutical composition comprising the same” (Korea Institute of Science and Technology, priority 2009, dated 2011).

Experiments:
[1] = tested on: A375 melanoma tumor cells; assay: Anti-proliferative effect on melanoma tumor cells (MTT reduction assay); format: cell-based
Experimental: (§1) 10% of fetal bovine serum (FBS) and 1% of penicillin/streptomycin were put into a Dulbecco's Modified Eagle (DMEM) medium, and A375P tumor cells obtained from ATCC was incubated in the above medium under a 5% CO2 atmosphere at 37° C. A375P cells were taken into 0.05% trypsin-0.02% ethylene-diamine tetraacetic acid (EDTA) and seeded it into wells of 96 well plate with 5×10^3 cells/well, and the viability of the cells was determined with a conventional [3-(4,5-dimethylthiazol-2-yl)-2,5-diphenyltetrazolium bromide, MTT] reduction assay. In the MTT efficacy experimentation, 15 μL of dye per well was put into the wells in accordance with the protocol of CellTiter 96® Assay (Promega), and then incubated for two hours, into which 100 μL of stop solution was added. The resultant was read after 24 hours. After one day of the plating, the obtained material was treated with a compound of the present invention. When it was treated with the compound, 10 mM of stock solution was prepared, and gradually diluted to one-third in dimethyl sulfoxide (DMSO). A test compound plate was prepared with 12 points, into which 0.5 μL was put (final concentration was DMSO 0.5%). Absorbance was read at a wavelength of 590 nm using EnVision 2103 (Perkin Elmer Boston, Mass., US), and GI50 values were calculated using GraphPad Prism 4.0 software.
(§2) GI50 values indicating inhibition of the compounds according to the examples of the present invention and control substances, on the proliferation of A375 melanoma tumor cells and HS27 fibroblasts. Sorafenib (BAY43-9006, Nexavar) which has been known as a substance having a good anti-proliferative effect on the melanoma tumor cells was used as a control substance.

HS27 fibroblasts = assay: Inhibition of proliferation of HS27 fibroblasts (selectivity, MTT reduction assay); format: cell-based; conditions: Homo sapiens
Experimental: as §1, §2

[2] = Homo sapiens, A-375, A375 melanoma tumor cells

Row | GI50 [1, 2] [µM] | GI50 ([1]; A375 melanoma tumor cells) [µM] | Compound | GI50 (HS27 fibroblasts) [µM]
1 | 3.74 |  | Nc1cccc2c(Oc3ccc(NC(=O)Nc4ccc(Cl)c(C(F)(F)F)c4)cc3)ccnc12 [Compound 1a, 1-[4-(8-aminoquinolin-4-yloxy)phenyl]-3-(4-chloro-3-trifluoromethylphenyl)urea] | 6.71
2 | 5.69 |  | Nc1cccc2c(Oc3ccc(NC(=O)c4ccc(Cl)c(C(F)(F)F)c4)cc3)ccnc12 [Compound 1b, N-[4-(8-aminoquinolin-4-yloxy)phenyl]-4-chloro-3-trifluoromethylbenzamide] | 7.63
3 | 4.19 |  | CC(=O)Nc1cccc2c(Oc3ccc(NC(=O)Nc4ccc(Cl)c(C(F)(F)F)c4)cc3)ccnc12 [Compound 1c, 1-[4-(8-acetylaminoquinolin-4-yloxy)phenyl]-3-(4-chloro-3-trifluoro-methylphenyl)urea] | 6.02
4 | 3.14 |  | CC(=O)Nc1cccc2c(Oc3ccc(NC(=O)c4ccc(Cl)c(C(F)(F)F)c4)cc3)ccnc12 [Compound 1d, N-[4-(8-acetylaminoquinolin-4-yloxy)phenyl]-4-chloro-3-trifluoromethylbenzamide] | 5.47
5 | 0.77 to 0.8 | 0.8 | O=C(Nc1ccc(Oc2ccnc3c(NC(=O)c4ccccc4)cccc23)cc1)c1ccc(Cl)c(C(F)(F)F)c1 [Compound 1e, N-[4-(8-benzoylaminoquinolin-4-yloxy)phenyl]-4-chloro-3-trifluoromethylbenzamide] | > 20
6 | 2.56 |  | Nc1cccc2c(Oc3cccc(NC(=O)Nc4ccc(Cl)c(C(F)(F)F)c4)c3)ccnc12 [Compound 1f, 1-[3-(8-aminoquinolin-4-yloxy)phenyl]-3-(4-chloro-3-trifluoromethylphenyl)urea] | 10.4
7 | 6.73 |  | Nc1cccc2c(Oc3cccc(NC(=O)c4ccc(Cl)c(C(F)(F)F)c4)c3)ccnc12 [Compound 1g, N-[3-(8-aminoquinolin-4-yloxy)phenyl]-4-chloro-3-trifluoromethylbenzamide] | > 20
8 | 2.32 |  | CC(=O)Nc1cccc2c(Oc3cccc(NC(=O)Nc4ccc(Cl)c(C(F)(F)F)c4)c3)ccnc12 [Compound 1h, 1-[3-(8-acetylaminoquinolin-4-yloxy)phenyl]-3-(4-chloro-3-trifluoromethylphenyl)urea] | 5.68
9 | 3.49 |  | CC(=O)Nc1cccc2c(Oc3cccc(NC(=O)c4ccc(Cl)c(C(F)(F)F)c4)c3)ccnc12 [Compound 1i, N-[3-(8-acetylaminoquinolin-4-yloxy)phenyl]-4-chloro-3-trifluoromethylbenzamide] | > 20
10 | 0.77 to 0.8 | 0.78 | O=C(Nc1cccc(Oc2ccnc3c(NC(=O)c4ccccc4)cccc23)c1)c1ccc(Cl)c(C(F)(F)F)c1 [Compound 1j, N-[3-(8-benzoylaminoquinolin-4-yloxy)phenyl]-4-chloro-3-trifluoromethylbenzamide] | > 20
11 | 1.3 |  | CC(=O)Nc1cccc2c(Oc3cc(NC(=O)c4ccc(Cl)c(C(F)(F)F)c4)ccc3C)ccnc12 [Compound 1k, N-[3-(8-acetylaminoquinolin-4-yloxy)-4-methylphenyl]-4-chloro-3-trifluoromethylbenzamide] | > 20
12 | 1.28 |  | CC(=O)Nc1cccc2c(Oc3cc(NC(=O)c4cccc(C(F)(F)F)c4)ccc3C)ccnc12 [Compound 1l, N-[3-(8-acetylaminoquinolin-4-yloxy)-4-methylphenyl]-3-trifluoromethylbenzamide] | > 20
13 | 0.77 to 0.8 | 0.77 | CC(=O)Nc1cccc2c(Oc3cc(NC(=O)c4cc(C(F)(F)F)cc(C(F)(F)F)c4)ccc3C)ccnc12 [Compound 1m, N-[3-(8-acetylaminoquinolin-4-yloxy)-4-methylphenyl]-3,5-bistrifluoromethylbenzamide] | > 20
14 | 0.77 to 0.8 | 0.79 | CC(=O)Nc1cccc2c(Oc3cc(NC(=O)c4ccc([N+](=O)[O-])c(C(F)(F)F)c4)ccc3C)ccnc12 [Compound 1n, N-[3-(8-acetylaminoquinolin-4-yloxy)-4-methylphenyl]-4-nitro-3-trifluoromethylbenzamide] | > 20
15 | > 20 |  | CC(=O)Nc1cccc2c(Oc3cc(NC(=O)c4cc(N5CCC(O)CC5)cc(C(F)(F)F)c4)ccc3C)ccnc12 [Compound 1o, N-[3-(8-acetylaminoquinolin-4-yloxy)-4-methylphenyl]-3-(4-hydroxypiperidin-1-yl)-5-trifluoromethylbenzamide] | > 20
16 | > 20 |  | CC(=O)Nc1cccc2c(Oc3cc(NC(=O)c4cc(-n5cnc(C)c5)cc(C(F)(F)F)c4)ccc3C)ccnc12 [Compound 1p, N-[3-(8-acetylaminoquinolin-4-yloxy)-4-methylphenyl]-3-(4-methylimidazol-1-yl)-5-trifluoromethylbenzamide] | > 20
17 | 2.12 |  | CC(=O)Nc1cccc2c(Oc3cc(NC(=O)c4ccccc4Cl)ccc3C)ccnc12 [Compound 1q, N-[3-(8-acetylaminoquinolin-4-yloxy)-4-methylphenyl]-2-chlorobenzamide] | > 20
18 | > 20 |  | CC(=O)Nc1cccc2c(Oc3cc(NC(=O)c4cc(C)on4)ccc3C)ccnc12 [Compound 1r, N-[3-(8-acetylaminoquinolin-4-yloxy)-4-methylphenyl]-5-methylisoxazole-3-carboxylic acid amide] | > 20
19 | 1.03 |  | Cc1ccc(NC(=O)c2ccc(Cl)c(C(F)(F)F)c2)cc1Oc1ccnc2c(NC(=O)c3ccccc3)cccc12 [Compound 1s, N-[3-(8-benzoylaminoquinolin-4-yloxy)-4-methylphenyl]-4-chloro-3-trifluoromethylbenzamide] | > 20
20 | 5.58 |  | CNC(=O)c1cc(Oc2ccc(NC(=O)Nc3ccc(Cl)c(C(F)(F)F)c3)cc2)ccn1 [Sorafenib, reference compound] | 7.85
